# In PMC6044835, “Expression, Purification, and Biochemical Characterization of the Flavocytochrome P450 CYP505A30 from Myceliophthora thermophila” (ACS Omega, 2017):
# Values joined by “and” are separate entries in the source; they are usually repeats but may differ in a detail not shown here. Identical values can stand only once. Like-named read-outs stand apart in the source and are kept apart here.
# B1: CYP505A30 (Thermothelomyces thermophilus ATCC 42464) (protein)
# chain: MADKTTETVPIPGPPGLPLVGNALAFDSELPLRTFQEFAEEYGEIYRLTLPTGTTLVVSSQALVHELCDDKRFKKPVAAALAEVRNGVNDGLFTAREEEPNWGIAHRILMPAFGPASIQGMFTEMHEIASQLALKWARHGPDTPIFVTDDFTRLTLDTLALCTMNFRFNSYYHDELHPFINAMGNFLTESGARAMRPAITSIFHQAANRKYWEDIEVLRKTAQGVLDTRRKHPTNRKDLLSAMLDGVDAKTGQKLSDSSIIDNLITFLIAGHETTSGLLSFAFYLLIKHQDAYRKAQEEVDRVIGKGPIKVEHIKKLPYIAAVLRETLRLCPTIPIINRAAKQDEVIGGKYAVAKDQRLALLLAQSHLDPAVYGETAKQFIPERMLDENFERLNREYPDCWKPFGTGMRACIGRPFAWQEAVLVMAMLLQNFDFVLHDPYYELHYKQTLTTKPKDFYMRAILRDGLTATELEHRLAGNAASVARSGGGGGGPSKPTAQKTSPAEAKPMSIFYGSNTGTCESLAQRLATDAASHGYAAAAVEPLDTATEKLPTDRPVVIITASFEGQPPDNAAKFCGWLKNLEGDELKNVSYAVFGCGHHDWSQTFHRIPKLVHQTMKAHGASPICDEGLTDVAEGNMFTDFEQWEDDVFWPAVRARYGAAGAVAETEDAPGSDGLNIHFSSPRSSTLRQDVREATVVGEALLTAPDAPPKKHIEVQLPDGATYKVGDYLAVLPVNSKESIGRVMRKFQLSWDSHVTIASDRWTALPTGTPVPAYDVLGSYVELSQPATKRGILRLADAAEDEATKAELQKLAGDLYTSEISLKRASVLDLLDRFPSISLPFGTFLSLLPPIRPRQYSISSSPLNDPSRATLTYSLLDSPSLANPSRRFVGVATSYLSSLVRGDKLLVSVRPTHTAFRLPDEDKMGETAIICVGAGSGLAPFRGFIQERAALLAKGTQLAAALLFYGCRSPEKDDLYRDEFDKWQESGAVDVRRAFSRVDSDDTEARGCRHVQDRLWHDREEVKALWDRGARVYVCGSRQVGEGVKTAMGRIVLGEEDAEDAISKWYETVRNDRYATDVFD
# What was measured:
# CYP505A30 [1] = target: T1, CYP505A30 (Thermothelomyces thermophilus, UniProt G2QDZ3); test: UV–visible spectral binding titration with intact CYP505A30; conditions: for HS (%): extent of HS heme iron accumulated, intact CYP505A30, estimated to nearest 5%
# CYP505A30 heme domain [2] = target: T2, CYP505A30 heme domain (Thermothelomyces thermophilus, UniProt G2QDZ3); test: UV–visible spectral binding titration with CYP505A30 heme domain; conditions: for HS (%): extent of HS heme iron accumulated, heme domain, estimated to nearest 5%
# CYP505A30 [3] = target: T1, CYP505A30; test: Stopped-flow kinetics of flavin reduction by NAD(P)H; format: biochemical, Myceliophthora thermophila
# CYP505A30 [4] = target: T1, CYP505A30
# CYP505A30 [5] = target: T1, CYP505A30; test: UV-visible spectral binding titration of imidazole-type inhibitors (Soret red shift by distal heme iron coordination) to intact CYP505A30 in 50 mM potassium phosphate pH 7.0 (25 °C stated for the substrate titrations), hyperbolic fit for bifonazole.; parameters: gene MYCTH_101224; intact CYP505A30, amino acids 1-1080, N-terminal hexahistidine tag (pET15b), expressed in E. coli; conditions: read-out: KD values (azole/imidazole inhibitors)
# Text: Figure 5 UV–visible spectroscopic analysis of CYP505A30 and its heme domain. […] The sodium dithionite-reduced ferrous form (dotted line) has its Soret maximum at 411 nm and a single visible region absorbance band at 546 nm. The ferrous, CO-bound form (thin solid line) has its Soret maximum at 450 nm and a visible band at 550 nm. The ferric heme NO-bound form (dashed line) has a Soret maximum at 434 nm and visible region bands at 543 and 573 nm. […] For clarity, the visible region is also shown at 5× magnification. […] The substrate-free heme domain (4.9 μM) is shown with a thick solid line. […] Each ΔAbs point is derived from the value of the difference peak absorbance maximum (at 388 nm) minus the difference trough absorbance minimum (at 417 nm). […]
# The wavelengths of the absorbance minimum and maximum were identified from the difference spectra, and a maximal induced absorbance change (ΔAmax) at each point in the titration was determined by subtracting the absorbance at the wavelength minimum from that at the absorbance maximum, using the same wavelength pair throughout each titration. ΔAmax values were then plotted against ligand concentration, and data were fitted using either a hyperbolic (Michaelis–Menten) function or the Morrison function for tight-binding ligands, to determine dissociation constants (KD values), as described previously.[38],[52]
# CYP505A30 [6] = target: T1, CYP505A30; test: Steady-state fatty acid-dependent NADPH oxidation
# P450 BM3 [7] = test system: P450 BM3; parameters: method as in PMID 1727637; conditions: cited from earlier work
# CYP505A30 [8] = target: T1, CYP505A30; conditions: CYP505A30, GC–MS
# P450 BM3 [9] = conditions: P450 BM3, similar conditions; cited from earlier work
# CYP505A30 heme domain [10] = target: T2, CYP505A30 heme domain
# [11] = target: Myceliophthora thermophila flavocytochrome P450 CYP505A30 (P450-CPR fusion enzyme), intact (Myceliophthora thermophila); test: SEC-MALS; 5 mg protein samples in buffer A (50 mM potassium phosphate, pH 7.0) containing 200 mM KCl; integrated Superdex 200 gel filtration followed at once by a DAWN EOS MALLS detector; monomer and dimer of the intact enzyme
# CYP505A30 [12] = target: T1, CYP505A30; conditions: for kcat: reduction of the electron acceptor, 25 °C
# [13] = substrate: CCCCCCCCCCCCCC(=O)O; test: purified protein, by the assay type; conditions: other: fatty acid-induced NADPH oxidation, 25 °C
# [14] = substrate: CCCCC/C=C\C/C=C\C/C=C\C/C=C\CCCC(=O)O; test: purified protein, by the assay type; conditions: other: fatty acid-induced NADPH oxidation, 25 °C
# [15] = substrate: CCCCCCCCCCCC(=O)O; test: purified protein, by the assay type; conditions: other: fatty acid-induced NADPH oxidation, 25 °C
# [16] = substrate: CCCCCCCCCCCCCCC(=O)O; test: purified protein, by the assay type; conditions: other: fatty acid-induced NADPH oxidation, 25 °C
# [17] = KD, substrate binding to intact CYP505A30, heme absorbance change, 25 °C
# [18] = fatty acid-dependent NADPH oxidation
# [19] = fatty acid-induced NADPH oxidation, 25 °C, 200 μM NADPH
molecule,measurement,setting,value
c1ccc(-n2ccnc2)cc1 [1-phenylimidazole],Kd,"CYP505A30 [1]; KD, imidazole-based inhibitors, distal coordination of heme iron, intact CYP505A30",3.4 ± 0.2 µM
CCCCCCCCCCCCCCCC(=O)NCC(=O)O [N-palmitoylglycine],HS (%),CYP505A30 heme domain [2],75%
same,HS (%),CYP505A30 [1],95%
"NC(=O)C1=CN([C@@H]2O[C@H](COP(=O)(O)OP(=O)(O)OC[C@H]3O[C@@H](n4cnc5c(N)ncnc54)[C@H](O)[C@@H]3O)[C@@H](O)[C@H]2O)C=CC1 [NADH, reduced nicotinamide adenine dinucleotide]",klim flavin reduction,CYP505A30 [3]; 10 °C,42.0 ± 3.2 s^–1
"NC(=O)C1=CN([C@@H]2O[C@H](COP(=O)(O)OP(=O)(O)OC[C@H]3O[C@@H](n4cnc5c(N)ncnc54)[C@H](OP(=O)(O)O)[C@@H]3O)[C@@H](O)[C@H]2O)C=CC1 [NADPH, reduced nicotinamide adenine dinucleotide phosphate]",gradient of kobs vs temperature,"CYP505A30 [3]; 10 to 35 °C, 1 mM NADPH",14.5 ± 1.5 s^–1 °C^–1
same,klim flavin reduction,CYP505A30 [3]; 10 °C,~82 s^–1
same,kobs flavin reduction,"CYP505A30 [3]; 10 °C, across [NADPH] range up to 1.2 mM",82.4 ± 9.1 s^–1
same,klim flavin reduction,CYP505A30 [3]; 25 °C,~250 s^–1
same,kobs flavin reduction (highest rate constant),"CYP505A30 [3]; 35 °C, 1 mM NADPH",441 ± 11 s^–1
c1ccc(-c2ccc(C(c3ccccc3)n3ccnc3)cc2)cc1 (stereo not shown) [bifonazole],Kd,CYP505A30 [1]; KD,69 µM and 69.1 µM
CCCCCCCCCC(=O)O [decanoic acid],HS (%),CYP505A30 [4],30%
same,Kd,CYP505A30 [1]; KD,21.1 ± 2 µM
Clc1ccc(COC(Cn2ccnc2)c2ccc(Cl)cc2Cl)cc1 (stereo not shown) [econazole],Kd,CYP505A30 [1]; KD,10 ± 0.9 µM
CCCCCCCCCCCCCCCCC(=O)O [heptadecanoic acid],Kd,CYP505A30 heme domain [2],8.7 ± 0.8 µM
same,HS (%),CYP505A30 heme domain [2],20%
same,Kd,CYP505A30 [1],4.1 ± 0.7 µM
same,HS (%),CYP505A30 [1],10%
CCCCCCCCCCCCCCCC(=O)O [hexadecanoic acid],Kd,CYP505A30 heme domain [2],1 ± 0.4 µM
same,HS (%),CYP505A30 heme domain [2],55%
same,Kd,CYP505A30 [1]; [17],10.5 ± 0.2 µM
same,HS (%),CYP505A30 [1],80%
c1c[nH]cn1 [imidazole],Kd,CYP505A30 [5],723 µM
CCCCCCCCCCCCCCCCCC(=O)O [octadecanoic acid],Kd,CYP505A30 heme domain [2],5 ± 0.7 µM
same,HS (%),CYP505A30 heme domain [2],10%
same,Kd,CYP505A30 [1],11.9 ± 1 µM
same,HS (%),CYP505A30 [1],15%
CCCCCCCCCCCCCCC(=O)O [pentadecanoic acid],Kd,CYP505A30 heme domain [2],1.1 ± 0.3 µM
same,HS (%),CYP505A30 heme domain [2],90%
same,Kd,CYP505A30 [1],4.4 ± 0.6 µM
same,HS (%),CYP505A30 [1],85%
same,KD (Michaelis–Menten fit of steady-state NADPH oxidation),CYP505A30 [6]; [18],7.8 µM
same,kcat,CYP505A30 [6]; [18],~450 min^–1
CCCCCCCCCCCCCC(=O)O [tetradecanoic acid],Kd,CYP505A30 heme domain [2],3.9 ± 0.3 µM
same,HS (%),CYP505A30 heme domain [2],85%
same,ω-1 hydroxylated product proportion,P450 BM3 [7],58%
same,ω-2 hydroxylated product proportion,P450 BM3 [7],21%
same,ω-3 hydroxylated product proportion,P450 BM3 [7],21%
same,ω-1 hydroxylated product proportion,CYP505A30 [8],63%
same,ω-2 hydroxylated product proportion,CYP505A30 [8],~28%
same,ω-3 hydroxylated product proportion,CYP505A30 [8],9%
same,ω-1 hydroxylated product proportion,CYP505A30 [8]; listed as myristic acid,approximately 63%
same,Kd,CYP505A30 [1]; [17],7.4 ± 0.2 µM
same,HS (%),CYP505A30 [1],80%
same,kcat,CYP505A30 [6]; [19],1.21 ± 0.1 s^–1
same,kcat,P450 BM3 [9],30.8 ± 1.5 s^–1
CCCCCCCCCCCCC(=O)O [tridecanoic acid],Kd,CYP505A30 heme domain [2],4.8 ± 0.3 µM
same,HS (%),CYP505A30 [4],65%
same,HS (%),CYP505A30 heme domain [10],30%
same,Kd,CYP505A30 [1]; [17],2.7 ± 0.3 µM
same,kcat,CYP505A30 [6]; [19],5.0 ± 0.3 s^–1
"Myceliophthora thermophila flavocytochrome P450 CYP505A30 (P450-CPR fusion enzyme), intact",stoichiometry N,[11],2
"cytochrome c: Cytochrome c (horse heart; Sigma-Aldrich), electron acceptor substrate for CPR enzymes",fold slower kcat than the BM3 enzyme,CYP505A30 [12]; BM3 under similar conditions,approximately 7.5 fold
same,Km,"CYP505A30 [12]; read-out: KM (electron acceptor), NADPH as electron donor",79.3 ± 10.3 µM
same,kcat,CYP505A30 [12]; NADH as electron donor,29.5 ± 2.4 s^–1
same,kcat,CYP505A30 [12]; NADPH as electron donor,29.7 ± 0.7 s^–1
B1,Km,[13],7.7 ± 1.9 µM
same,kcat,[13],1.2 ± 0.1 s⁻¹
same,kcat/Km,[13],160000 M⁻¹ s⁻¹
same,Km,[14],9.2 ± 0.5 µM
same,kcat,[14],2 ± 0.1 s⁻¹
same,kcat/Km,[14],220000 M⁻¹ s⁻¹
same,Km,[15],21.2 ± 2.4 µM
same,kcat,[15],4.8 ± 0.2 s⁻¹
same,kcat/Km,[15],230000 M⁻¹ s⁻¹
same,Km,[16],7.8 ± 2.1 µM
same,kcat,[16],7.5 ± 0.7 s⁻¹
same,kcat/Km,[16],960000 M⁻¹ s⁻¹
